Source: US11179391B2, “Compound with kinase inhibitory activity and preparation method and use thereof” (priority 2017, dated 2021)
Like-named read-outs stand apart in the source and are kept apart here.

Tests used:
Type in all cases: biochemical
CDK4/CycD3 = CDK4/CycD3 (Homo sapiens, UniProt P11802); experiment: Determination of CDK activity (Caliper mobility shift, FAM-P8 peptide): CDK4; details: CDK4/CycD3; read-out: CDK4 enzymatic inhibitory activity (IC50)
Description: (§1) In vitro, CDK (CDK4, CDK6, CDK1, CDK2, CDK7, and CDK9) kinase activity was tested by the following method.
(§2) CDK and raw materials used here: CDK4/CycD3 (Carna, Cat. No 04-105, Lot. No 10CBS-0429 C, GST-CDK4(1-303end)/GST-CycD3(1-292end)); CDK6/cycD3 (Carna, Cat. No 04-107, Lot. No 09CBS-0622K, GST-CDK6(1-326(end))); CDK1/CyclinB (Millipore, Cat. 14-450k, Lot. No 25729U, His-CDK1+GST-cyclinB); CDK2/CycA2 (Carna, Cat. No 04-103, Lot. No 06CBS-3024, GST-CDK2 (1-298(end))); CDK7/CyclinH/MAT1 (Millipore, Cat. No 14-476M, Lot. No WAB0365-A, His-CDK7+GST-MAT1+cyclinH); CDK9/cyclinTl (Millipore, Cat. No 14-685K, Lot. No. 2476163-A, His-CDK9+cyclinTl); Peptide FAM-P8 (GL Biochem, Cat. No. 112396, Lot. No. P100804-XZ112396); ATP (Sigma, Cat. No. A7699-1G, CAS No. 987-65-5); DMSO (Sigma, Cat. No. D2650, Lot. No. 474382); EDTA (Sigma, Cat. No. E5134, CAS No. 60-00-4); 96-well plate (Corning, Cat. No. 3365, Lot. No. 22008026); 384-well plate (Corning, Cat. No. 3573, Lot. No. 12608008); Staurosporine (Sigma, Cat. No. S4400-1MG, Lot. No. 046K4080).
(§3) 1. Prepared 1× Kinase Buffer and Stop Buffer for the Test
2) 1× Kinase Base Buffer (CDK4).
(§4) 1) Diluted the compound to 50 times of the maximum concentration with 100% DMSO. For example, if the desired maximum inhibitory concentration is 10 μM, then a DMSO solution of 500 μM concentration is required.
(§5) 2) Transferred the compound to a 96-well plate and serially diluted the compound from a 100% DMSO solution at a ratio of 30 μm to 60 μm for a total of 10 concentrations gradients. 3) Transferred 100 μm of 100% DMSO to two empty wells as a no compound control and a no enzyme control.
(§6) 4) Prepared intermediate plate and transferred the compound of 10 μm concentration from the original plate to the intermediate plate, and then 90 μm of 1× kinase buffer was added and mixed by shaking for 10 min.
(§7) 4) Preparing intermediate plate and transferred the compound of […] concentration from the original plate to the intermediate plate, and then 90 μm of 1× kinase buffer was added and mixed by shaking for 10 min.
(§8) 1) Transferred 5 μm of each compound from the 96-well intermediate plate to a 384-well plate. For example, A1 of the 96-well plate was transferred to A1 and A2 of the 384-well plate. A2 of the 96-well plate was transferred to A3 and A4 of the 384-well plate, and so on.
(§9) 1) Prepared a 2.5× enzyme solution: added kinase into 1× kinase base buffer.
(§10) 2) Prepared a 2.5× peptide solution: added FAM-labeled peptide and ATP into the 1× kinase base buffer.
(§11) 3) Transferred the 2.5× enzyme solution to the assay plate: Assay plate already contained 5 μm of 10% DMSO and transferred 10 μm of 2.5× enzyme solution to each well.
(§12) 4) Incubated at room temperature for 10 min.
(§13) 5) Transferred the 2.5× peptide solution to the assay plate: added 10 μm of 2.5× peptide solution to each well of the 384-well assay plate.
(§14) 6) Kinase reaction and termination: incubated at 28° C. for a specified period and added 25 μm of stop buffer to stop the reaction.
(§15) 5. Caliper Reading: Collect Data on Caliper.
(§16) 1) Copied conversion data from Caliper program and Converted conversion values to inhibition values: Inhibition rate (%)=(1−OD value of the compound-OD value of the control well)/(OD value of the control empty-OD value of the control well)*100%.
(§17) 2) Fitted the data in XLFit excel add-in version 4.3.1 to give the corresponding IC50 values.

CDK2/CycA2 = CDK2/CycA2 (Homo sapiens, UniProt P24941); experiment: Determination of CDK activity (Caliper mobility shift, FAM-P8 peptide): CDK2; details: CDK2/CycA2; read-out: CDK2 enzymatic inhibitory activity (IC50)
Description: as §1, §3
(§18) 1) 1× Kinase Base Buffer (CDK1, 2, and 6).
as §4, §5
(§19) 1) Transferred 5 μm of each compound from the 96-well intermediate plate to a 384-well plate. […] A2 of the 96-well plate was transferred to A3 and A4 of the 384-well plate, and so on.
as §9, §10, §11, §12, §13, §14, §15, §16, §17

CDK1/CyclinB = CDK1/CyclinB (Homo sapiens, UniProt P06493); experiment: Determination of CDK activity (Caliper mobility shift, FAM-P8 peptide): CDK1; details: CDK1/CyclinB; read-out: CDK1 enzymatic inhibitory activity (IC50)
Description: as §1, §3, §18, §4, §5, §19, §9, §10, §11, §12, §13, §14, §15, §16, §17

CDK9/cyclinTl = CDK9/cyclinTl (Homo sapiens, UniProt P50750); experiment: Determination of CDK activity (Caliper mobility shift, FAM-P8 peptide): CDK9; details: CDK9/cyclinTl
Description: as §1, §3
(§20) 3) 1× Kinase Base Buffer (CDK7 and 9).
as §4, §5, §19, §9, §10, §11, §12, §13, §14, §15, §16, §17

CDK7/CyclinH/MAT1 = CDK7/CyclinH/MAT1 (Homo sapiens, UniProt P50613); experiment: Determination of CDK activity (Caliper mobility shift, FAM-P8 peptide): CDK7; details: CDK7/CyclinH/MAT1; read-out: CDK7 enzymatic inhibitory activity (IC50)
Description: as §1, §2, §3, §20, §4, §5, §6, §7, §8, §9, §10, §11, §12, §13, §14, §15, §16, §17

CDK6/cycD3 = CDK6/cycD3 (Homo sapiens, UniProt Q00534); experiment: Determination of CDK activity (Caliper mobility shift, FAM-P8 peptide): CDK6; details: CDK6/cycD3; read-out: CDK6 enzymatic inhibitory activity (IC50)
Description: as §1, §2, §3, §18, §4, §5, §6, §7, §8, §9, §10, §11, §12, §13, §14, §15, §16, §17

[1] = read-out: CDK9 enzymatic inhibitory activity (IC50)
[2] = CDK9 enzymatic inhibitory activity (IC50)

CDK1/CyclinB, sequence (P06493 whole entry): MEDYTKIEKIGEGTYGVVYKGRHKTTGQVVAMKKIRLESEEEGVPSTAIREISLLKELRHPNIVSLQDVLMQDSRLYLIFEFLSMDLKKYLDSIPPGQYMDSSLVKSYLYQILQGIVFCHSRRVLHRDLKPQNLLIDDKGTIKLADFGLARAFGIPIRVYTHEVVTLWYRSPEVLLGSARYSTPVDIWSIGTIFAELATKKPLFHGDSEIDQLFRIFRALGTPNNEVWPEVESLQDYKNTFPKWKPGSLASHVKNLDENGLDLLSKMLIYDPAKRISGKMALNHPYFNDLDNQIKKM
CDK1/CyclinB, sequence (P14635 whole entry partner): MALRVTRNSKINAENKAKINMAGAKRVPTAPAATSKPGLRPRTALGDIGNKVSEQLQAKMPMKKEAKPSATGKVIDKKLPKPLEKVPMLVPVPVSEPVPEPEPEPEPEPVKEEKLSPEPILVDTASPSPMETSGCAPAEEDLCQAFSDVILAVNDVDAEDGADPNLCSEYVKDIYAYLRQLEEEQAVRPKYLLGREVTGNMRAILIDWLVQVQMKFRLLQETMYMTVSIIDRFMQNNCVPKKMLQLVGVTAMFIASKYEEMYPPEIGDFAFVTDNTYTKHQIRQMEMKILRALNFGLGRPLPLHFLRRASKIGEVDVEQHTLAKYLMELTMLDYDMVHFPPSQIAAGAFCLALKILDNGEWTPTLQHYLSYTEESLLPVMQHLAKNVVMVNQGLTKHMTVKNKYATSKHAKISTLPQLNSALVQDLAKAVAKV
CDK9/cyclinTl, sequence (P50750 whole entry): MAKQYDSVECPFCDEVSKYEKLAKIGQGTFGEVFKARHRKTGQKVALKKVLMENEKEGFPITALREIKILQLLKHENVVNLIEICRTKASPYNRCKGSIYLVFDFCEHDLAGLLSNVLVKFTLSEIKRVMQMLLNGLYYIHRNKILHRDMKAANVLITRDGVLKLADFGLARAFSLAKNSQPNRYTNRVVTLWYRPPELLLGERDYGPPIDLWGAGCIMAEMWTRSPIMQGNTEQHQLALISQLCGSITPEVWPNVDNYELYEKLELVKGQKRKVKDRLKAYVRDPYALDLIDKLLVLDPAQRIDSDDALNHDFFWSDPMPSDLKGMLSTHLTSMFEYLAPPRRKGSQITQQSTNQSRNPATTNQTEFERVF
CDK9/cyclinTl, sequence (O60563 whole entry partner): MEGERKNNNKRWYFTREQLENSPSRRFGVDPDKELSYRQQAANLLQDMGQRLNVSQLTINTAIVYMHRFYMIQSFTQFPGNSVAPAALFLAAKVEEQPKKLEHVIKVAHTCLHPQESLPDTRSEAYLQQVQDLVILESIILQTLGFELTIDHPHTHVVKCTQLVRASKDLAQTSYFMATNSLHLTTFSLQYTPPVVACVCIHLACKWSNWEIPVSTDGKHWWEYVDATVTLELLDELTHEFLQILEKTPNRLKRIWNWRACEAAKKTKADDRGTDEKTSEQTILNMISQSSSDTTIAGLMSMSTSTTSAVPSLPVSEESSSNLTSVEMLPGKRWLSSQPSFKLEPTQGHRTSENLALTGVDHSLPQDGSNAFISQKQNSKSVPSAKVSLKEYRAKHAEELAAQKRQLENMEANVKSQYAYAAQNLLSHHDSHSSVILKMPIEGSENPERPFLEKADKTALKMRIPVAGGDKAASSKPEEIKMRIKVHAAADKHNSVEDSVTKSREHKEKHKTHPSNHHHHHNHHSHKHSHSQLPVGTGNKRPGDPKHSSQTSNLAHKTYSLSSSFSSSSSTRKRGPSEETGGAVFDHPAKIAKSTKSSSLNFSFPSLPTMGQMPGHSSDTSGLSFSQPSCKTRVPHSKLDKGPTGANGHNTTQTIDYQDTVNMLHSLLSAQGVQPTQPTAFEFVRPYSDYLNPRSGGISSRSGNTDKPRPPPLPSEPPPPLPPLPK
CDK7/CyclinH/MAT1, sequence (P50613 whole entry): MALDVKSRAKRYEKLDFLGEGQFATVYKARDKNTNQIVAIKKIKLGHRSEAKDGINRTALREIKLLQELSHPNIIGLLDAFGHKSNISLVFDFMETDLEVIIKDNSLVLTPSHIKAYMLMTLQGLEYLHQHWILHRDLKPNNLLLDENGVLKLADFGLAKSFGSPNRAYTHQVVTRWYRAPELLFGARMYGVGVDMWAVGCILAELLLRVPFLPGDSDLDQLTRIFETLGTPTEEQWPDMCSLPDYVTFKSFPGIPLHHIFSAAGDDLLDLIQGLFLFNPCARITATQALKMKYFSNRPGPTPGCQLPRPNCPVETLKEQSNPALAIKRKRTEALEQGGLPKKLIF
CDK7/CyclinH/MAT1, sequence (P51946 whole entry partner): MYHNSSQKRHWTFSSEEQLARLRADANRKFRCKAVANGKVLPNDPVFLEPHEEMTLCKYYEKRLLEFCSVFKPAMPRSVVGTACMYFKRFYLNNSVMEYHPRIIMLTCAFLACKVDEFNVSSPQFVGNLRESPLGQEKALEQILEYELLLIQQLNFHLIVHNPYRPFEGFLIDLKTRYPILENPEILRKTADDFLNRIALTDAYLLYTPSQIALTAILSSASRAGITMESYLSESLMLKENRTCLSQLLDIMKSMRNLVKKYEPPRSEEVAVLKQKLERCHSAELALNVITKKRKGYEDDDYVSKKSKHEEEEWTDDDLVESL
CDK7/CyclinH/MAT1, sequence (P51948 whole entry partner): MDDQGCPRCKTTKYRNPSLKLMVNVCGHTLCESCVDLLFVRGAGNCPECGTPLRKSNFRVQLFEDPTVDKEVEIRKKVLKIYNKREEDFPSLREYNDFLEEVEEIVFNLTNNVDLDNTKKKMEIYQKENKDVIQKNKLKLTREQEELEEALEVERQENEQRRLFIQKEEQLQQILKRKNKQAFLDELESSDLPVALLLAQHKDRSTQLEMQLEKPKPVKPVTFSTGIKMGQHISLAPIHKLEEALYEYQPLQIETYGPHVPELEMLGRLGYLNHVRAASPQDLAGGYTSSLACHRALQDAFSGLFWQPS
CDK4/CycD3, sequence (P11802 whole entry): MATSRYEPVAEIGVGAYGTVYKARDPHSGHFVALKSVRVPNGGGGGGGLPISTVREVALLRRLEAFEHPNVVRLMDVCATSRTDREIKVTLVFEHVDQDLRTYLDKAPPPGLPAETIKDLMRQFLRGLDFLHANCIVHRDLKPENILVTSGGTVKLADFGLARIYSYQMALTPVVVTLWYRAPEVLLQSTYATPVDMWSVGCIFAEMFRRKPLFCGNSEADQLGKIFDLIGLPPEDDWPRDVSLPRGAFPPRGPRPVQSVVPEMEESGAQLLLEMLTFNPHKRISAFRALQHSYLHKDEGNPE
CDK4/CycD3, sequence (P30281 whole entry partner): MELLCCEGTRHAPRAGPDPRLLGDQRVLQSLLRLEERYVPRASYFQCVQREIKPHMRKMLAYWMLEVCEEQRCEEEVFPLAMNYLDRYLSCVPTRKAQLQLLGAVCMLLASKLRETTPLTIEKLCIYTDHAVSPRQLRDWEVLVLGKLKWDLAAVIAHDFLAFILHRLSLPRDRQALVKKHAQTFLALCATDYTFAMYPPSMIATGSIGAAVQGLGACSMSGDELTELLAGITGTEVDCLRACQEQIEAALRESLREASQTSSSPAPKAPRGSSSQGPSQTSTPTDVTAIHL
CDK6/cycD3, sequence (Q00534 whole entry): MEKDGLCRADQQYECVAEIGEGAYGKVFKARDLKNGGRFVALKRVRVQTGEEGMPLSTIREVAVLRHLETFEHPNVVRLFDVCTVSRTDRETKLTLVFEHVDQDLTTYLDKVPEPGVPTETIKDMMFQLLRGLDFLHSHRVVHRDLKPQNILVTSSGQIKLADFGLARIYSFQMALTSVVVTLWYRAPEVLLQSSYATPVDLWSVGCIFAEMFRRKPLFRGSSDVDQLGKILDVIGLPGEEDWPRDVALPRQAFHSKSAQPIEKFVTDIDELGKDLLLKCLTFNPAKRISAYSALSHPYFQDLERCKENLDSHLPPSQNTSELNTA
CDK6/cycD3, sequence (P30281 whole entry partner): as the sequence (P30281 whole entry partner) above

IC50 (CDK4/CycD3) [nM]	IC50 (CDK2/CycA2) [nM]	IC50 (CDK1/CyclinB) [nM]	IC50 (CDK9/cyclinTl; [1]) [nM]	IC50 (CDK7/CyclinH/MAT1) [nM]	IC50 (CDK6/cycD3) [nM]	SMILES	IC50 (CDK9/cyclinTl; [2]) [nM]
< 100	< 100	100 to 500	500 to 1000	1000 to 10000	< 100	Cc1nc2c(F)cc(-c3nc(Nc4ccc([C@H](C)C5CCN(C(C)C)CC5)cn4)ncc3F)cc2n1C(C)C (single isomer, unassigned) [Example 73]	
< 100	100 to 500	500 to 1000	100 to 500	1000 to 10000	100 to 500	Cc1nc2c(F)cc(-c3nc(Nc4ccc([C@@H](C)C5CCN(C(C)C)CC5)cn4)ncc3F)cc2n1C(C)C (single isomer, unassigned) [Example 74]	
< 100	< 100	100 to 500	100 to 500	1000 to 10000	< 100	COCCN1CCC([C@@H](C)c2ccc(Nc3ncc(F)c(-c4cc(F)c5nc(C)n(C(C)C)c5c4)n3)nc2)CC1 (single isomer, unassigned) [Example 79]	
< 100	100 to 500	500 to 1000	100 to 500	1000 to 10000	100 to 500	COCCN1CCC([C@H](C)c2ccc(Nc3ncc(F)c(-c4cc(F)c5nc(C)n(C(C)C)c5c4)n3)nc2)CC1 (single isomer, unassigned) [Example 80]	
< 100	1000 to 10000	10000 to 100000	1000 to 10000	1000 to 10000	500 to 1000	CC[C@@H](c1ccc(Nc2ncc(F)c(-c3cc(F)c4nc(C)n(C(C)C)c4c3)n2)nc1)N1CCNCC1 [Example 4]	
< 100	10000 to 100000	10000 to 100000	10000 to 100000	1000 to 10000	1000 to 10000	CC[C@H](c1ccc(Nc2ncc(F)c(-c3cc(F)c4nc(C)n(C(C)C)c4c3)n2)nc1)N1CCNCC1 [Example 5]	
100 to 500	100 to 500	500 to 1000	500 to 1000	1000 to 10000	100 to 500	CC[C@@H](c1ccc(Nc2ncc(F)c(-c3cc(F)c4nc(C)n(C(C)C)c4c3)n2)nc1)C1CCN(CC)CC1 [Example 25]	
100 to 500	500 to 1000	500 to 1000	500 to 1000	1000 to 10000	100 to 500	CC[C@H](c1ccc(Nc2ncc(F)c(-c3cc(F)c4nc(C)n(C(C)C)c4c3)n2)nc1)C1CCN(CC)CC1 [Example 26]	

SMILES	IC50 (CDK4/CycD3) [nM]	IC50 (CDK2/CycA2) [nM]	IC50 (CDK1/CyclinB) [nM]	IC50 (CDK9/cyclinTl; [1]) [nM]	IC50 (CDK7/CyclinH/MAT1) [nM]	IC50 (CDK6/cycD3) [nM]	IC50 (CDK9/cyclinTl; [2]) [nM]
CC[C@@H](c1ccc(Nc2ncc(F)c(-c3cc(F)c4nc(C)n(C(C)C)c4c3)n2)nc1)N1CCN(C)CC1 [Example 6]	< 100	1000 to 10000	10000 to 100000		1000 to 10000	100 to 500	1000 to 10000
CC[C@H](c1ccc(Nc2ncc(F)c(-c3cc(F)c4nc(C)n(C(C)C)c4c3)n2)nc1)N1CCN(C)CC1 [Example 7]	< 100	10000 to 100000	10000 to 100000		1000 to 10000	1000 to 10000	10000 to 100000
